Each molecule was assayed against T1, P2Y12 receptor (Homo sapiens, UniProt Q9H244) (assay: Functional inhibition of 2-Me-S-ADP induced P2Y12 signalling (35S-GTPγS binding, cell membranes)). Conditions: 35S-GTPγS assay, membranes, EC80 concentration of 2-methyl-thio-adenosine diphosphate, 30° C. for 45 min; read-out: GTPγS (IC50 μM).
T1 construct: expressed in transfected cells; host or cells: CHO cells (membrane preparation)
Assay type: biochemical
Procedure: Functional inhibition of- the P2Y12 receptor can be measured by in vitro assays using cell membranes from P2Y12 transfected CHO-cells, the methodology is indicated below.
Functional inhibition of 2-Me-S-ADP induced P2Y12 signalling: 5 μg of membranes were diluted in 200 μl of 200 mM NaCl, 1 mM MgCl2, 50 mM HEPES (pH 7.4), 0.01% BSA, 30 μg/ml saponin and 10 μM GDP. To this was added an EC80 concentration of agonist (2-methyl-thio-adenosine diphosphate), the required concentration of test compound and 0.1 μCi ^35S-GTPγS. The reaction was allowed to proceed at 30° C. for 45 min. Samples were then transferred on to GF/B filters using a cell harvester and washed with wash buffer (50 mM Tris (pH 7.4), 5 mM MgCl2, 50 mM NaCl). Filters were then covered with scintilant and counted for the amount of ^35S-GTPγS retained by the filter. Maximum activity was that determined in the presence of the agonist and minimum activity in the absence of the agonist following subtraction of the value determined for non-specific activity. The effect of compounds at various concentrations was plotted according to the equation
y=A+((B−A)/(1+((C/x)̂D)))
and IC50 estimated where A is the bottom plateau of the curve i.e. the final minimum y value B is the top of the plateau of the curve i.e. the final maximum y value C is the x value at the middle of the curve. This represents the log EC50 value when A+B=100 D is the slope factor. x is the original known x values. Y is the original known y values.

T1 sequence (Q9H244 whole entry): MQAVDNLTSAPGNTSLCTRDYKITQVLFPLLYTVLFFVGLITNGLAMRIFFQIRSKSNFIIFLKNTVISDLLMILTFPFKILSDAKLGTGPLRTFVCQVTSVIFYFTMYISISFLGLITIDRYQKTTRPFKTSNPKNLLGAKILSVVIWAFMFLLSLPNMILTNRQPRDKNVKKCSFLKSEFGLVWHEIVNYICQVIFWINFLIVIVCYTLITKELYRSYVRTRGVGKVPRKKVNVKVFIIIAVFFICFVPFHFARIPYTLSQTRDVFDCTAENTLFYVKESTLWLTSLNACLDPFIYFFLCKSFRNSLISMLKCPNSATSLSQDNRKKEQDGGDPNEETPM

`CCOC(=O)c1cc(C#N)c(N2CCC(C(=O)NS(=O)(=O)Cc3ccccc3)CC2)nc1OCC(N)=O` [Example 22, Ethyl 2-(2-amino-2-oxoethoxy)-6-{4-[(benzylsulfonyl)carbamoyl]piperidin-1-yl}-5-cyanonicotinate] was tested. Which IC50 did it give?
The IC50 was 0.072 µM.

`CCOC(=O)c1cc(C#N)c(N2CCC(C(=O)NS(=O)(=O)Cc3ccccc3)CC2)nc1SCC(=O)N1CCC1` [Example 124, Ethyl 2-[(2-azetidin-1-yl-2-oxoethyl)thio]-6-{4-[(benzylsulfonyl)carbamoyl]piperidin-1-yl}-5-cyanonicotinate] was tested. Which IC50 did it give?
Its IC50 is 0.013 µM.

How did the IC50 turn out when `CCOC(=O)c1cc(C#N)c(N2CCC(C(=O)NS(=O)(=O)Cc3ccccc3)CC2)nc1CCC(C)=O` [Example 112, Ethyl 6-{4-[(benzylsulfonyl)carbamoyl]piperidin-1-yl}-5-cyano-2-(3-oxobutyl)nicotinate] was run?
The IC50 was 0.022 µM.

`COc1ccc(CS(=O)(=O)NC(=O)C2CCN(c3nc(CN4CCCC4=O)c(C(=O)OC(C)C)cc3C#N)CC2)cc1` [Example 83, Isopropyl 5-cyano-6-(4-{[(4-methoxybenzyl)sulfonyl]carbamoyl}piperidin-1-yl)-2-[(2-oxopyrrolidin-1-yl)methyl]nicotinate] was tested. Which IC50 did it give?
The IC50 was 0.016 µM.

Which IC50 does the source give for `CCOC(=O)CCc1nc(N2CCC(C(=O)NS(=O)(=O)Cc3ccccc3)CC2)c(C#N)cc1C(=O)OCC` [Example 107, Ethyl 6-{4-[(benzylsulfonyl)carbamoyl]piperidin-1-yl}-5-cyano-2-(3-ethoxy-3-oxopropyl)nicotinate] here?
Its IC50 is 0.056 µM.

Which IC50 does the source give for `CCOC(=O)c1cc(C#N)c(N2CCC(C(=O)NS(=O)(=O)Cc3ccc(OC)cc3)CC2)nc1CN1CCCC1=O` [Example 75, Ethyl 5-cyano-6-(4-{[(4-methoxybenzyl)sulfonyl]carbamoyl}piperidin-1-yl)-2-[(2-oxopyrrolidin-1-yl)methyl]nicotinate] here?
Its IC50 is 0.0075 µM.

How did the IC50 turn out when `CCOC(=O)c1cc(C#N)c(N2CC(C(=O)NS(=O)(=O)Cc3ccccc3)C2)nc1COC(C)=O` [Example 7, Ethyl 2-(acetoxymethyl)-6-{3-[(benzylsulfonyl)carbamoyl]azetidin-1-yl}-5-cyanonicotinate] was run?
The IC50 was 0.076 µM.

`CCOC(=O)CSc1nc(N2CCC(C(=O)NS(=O)(=O)Cc3ccc(Cl)cc3Cl)CC2)c(C#N)cc1C(=O)OCC` [Example 109, Ethyl 5-cyano-6-(4-{[(2,4-dichlorobenzyl)sulfonyl]carbamoyl}piperidin-1-yl)-2-[(2-ethoxy-2-oxoethyl)thio]nicotinate] was tested. Which IC50 did it give?
Its IC50 is 0.062 µM.

How did the IC50 turn out when `Cc1ccc(CS(=O)(=O)NC(=O)C2CCN(c3nc(CN4CCCC4=O)c(C(=O)OC(C)C)cc3C#N)CC2)cc1` [Example 45, Isopropyl 5-cyano-6-(4-{[(4-methylbenzyl)sulfonyl]carbamoyl}piperidin-1-yl)-2-[(2-oxopyrrolidin-1-yl)methyl]nicotinate] was run?
Its IC50 is 0.019 µM.

How did the IC50 turn out when `CCOC(=O)c1cc(C#N)c(N2CCC(C(=O)NS(=O)(=O)Cc3ccccc3)CC2)nc1SCCO` [Example 19, Ethyl 6-{4-[(benzylsulfonyl)carbamoyl]piperidin-1-yl}-5-cyano-2-[(2-hydroxyethyl)thio]nicotinate] was run?
The IC50 was 0.016 µM.

`CCOC(=O)c1cc(Br)c(N2CCC(C(=O)NS(=O)(=O)Cc3ccccc3)CC2)nc1CN1CCCC1=O` [Example 84, Ethyl 6-{4-[(benzylsulfonyl)carbamoyl]piperidin-1-yl}-5-bromo-2-[(2-oxopyrrolidin-1-yl)methyl]nicotinate] was tested. Which IC50 did it give?
Its IC50 is 0.031 µM.

How did the IC50 turn out when `CCOC(=O)c1cc(C#N)c(N2CCC(C(=O)NS(=O)(=O)Cc3ccccc3)CC2)nc1OCC(=O)O` [Example 24, {[6-{4-[(Benzylsulfonyl)carbamoyl]piperidin-1-yl}-5-cyano-3-(ethoxycarbonyl)pyridin-2-yl]oxy}acetic acid] was run?
The IC50 was 0.025 µM.

With `CCOC(=O)c1cc(C#N)c(N2CCC(C(=O)NS(=O)(=O)Cc3ccccc3)CC2)nc1CSc1nccs1` [Example 117, Ethyl 6-{4-[(benzylsulfonyl)carbamoyl]piperidin-1-yl}-5-cyano-2-[(1,3-thiazol-2-ylthio)methyl]nicotinate] as the molecule, how does the IC50 read?
The IC50 was 0.035 µM.

With `CC(C)OC(=O)c1cc(C#N)c(N2CCC(C(=O)NS(=O)(=O)N(C)c3ccc(F)cc3)CC2)nc1CN1CCCC1=O` [Example 79, Isopropyl 5-cyano-6-[4-({[(4-fluorophenyl)(methyl)amino]sulfonyl}carbamoyl)piperidin-1-yl]-2-[(2-oxopyrrolidin-1′-yl)methyl]nicotinate] as the molecule, how does the IC50 read?
Its IC50 is 0.014 µM.

How did the IC50 turn out when `CCOC(=O)c1cc(C#N)c(N2CCC(C(=O)NS(=O)(=O)Cc3ccccc3)CC2)nc1CN1C(=O)CCC1=O` [Example 15, Ethyl 6-{4-[(benzylsulfonyl)carbamoyl]piperidin-1-yl}-5-cyano-2-[(2,5-dioxopyrrolidin-1-yl)methyl]nicotinate] was run?
Its IC50 is 0.017 µM.

With `CC(C)OC(=O)c1cc(C#N)c(N2CCC(C(=O)NS(=O)(=O)Cc3ccc([Si](C)(C)C)cc3)CC2)nc1CN1CCCC1=O` [Example 99, Isopropyl 5-cyano-2-[(2-oxopyrrolidin-1-yl)methyl]-6-[4-({[4-(trimethylsilyl)benzyl]sulfonyl}carbamoyl)piperidin-1-yl]nicotinate] as the molecule, how does the IC50 read?
Its IC50 is 0.497 µM.

With `CC(C)OC(=O)c1cc(C#N)c(N2CCC(C(=O)NS(=O)(=O)Cc3ccc(F)cc3F)CC2)nc1CN1CCCC1=O` [Example 46, Isopropyl 5-cyano-6-(4-{[(2,4-difluorobenzyl)sulfonyl]carbamoyl}piperidin-1-yl)-2-[(2-oxopyrrolidin-1-yl)methyl]nicotinate] as the molecule, how does the IC50 read?
The IC50 was 0.021 µM.

`CCOC(=O)c1cc(C#N)c(N2CCC(C(=O)NS(=O)(=O)Cc3ccccc3)CC2)nc1COC(=O)CO` [Example 16, Ethyl 6-{4-[(benzylsulfonyl)carbamoyl]piperidin-1-yl}-5-cyano-2-[(glycoloyloxy)methyl]nicotinate] was tested. Which IC50 did it give?
The IC50 was 0.015 µM.

`CCOC(=O)c1cc(C#N)c(N2CC(C(=O)NS(=O)(=O)Cc3ccccc3)C2)nc1CN(C)C` [Example 6, Ethyl 6-{3-[(benzylsulfonyl)carbamoyl]azetidin-1-yl}-5-cyano-2-[(dimethylamino)methyl]nicotinate] was tested. Which IC50 did it give?
The IC50 was 1.07 µM.

For `CCSC(=O)c1cc(C#N)c(N2CCC(C(=O)NS(=O)(=O)CC3CCCC3)CC2)nc1CN1CCCC1=O` [Example 97, S-Ethyl 5-cyano-6-(4-{[(cyclopentylmethyl)sulfonyl]carbamoyl}piperidin-1-yl)-2-[(2-oxopyrrolidin-1-yl)methyl]pyridine-3-carbothioate], which IC50 is on record?
The IC50 was 1.22 µM.

`CC(C)OC(=O)c1cc(C#N)c(N2CCC(C(=O)NS(=O)(=O)Cc3ccc(Cl)cc3Cl)CC2)nc1CN1CCCC1=O` [Example 53, Isopropyl 5-cyano-6-(4-{[(2,4-dichlorobenzyl)sulfonyl]carbamoyl}piperidin-1-yl)-2-[(2-oxopyrrolidin-1-yl)methyl]nicotinate] was tested. Which IC50 did it give?
Its IC50 is 0.032 µM.

For `CCOC(=O)c1cc(C#N)c(N2CC(C(=O)NS(=O)(=O)Cc3ccccc3)C2)nc1CN1C(=O)CCC1=O` [Example 13, Ethyl 6-{3-[(benzylsulfonyl)carbamoyl]azetidin-1-yl}-5-cyano-2-[(2,5-dioxopyrrolidin-1-yl)methyl]nicotinate], which IC50 is on record?
The IC50 was 0.064 µM.

`CCOC(=O)c1cc(C#N)c(N2CCC(C(=O)NS(=O)(=O)CC3CCC3)CC2)nc1CN1CCCC1=O` [Example 74, Ethyl 5-cyano-6-(4-{[(cyclobutylmethyl)sulfonyl]carbamoyl}piperidin-1-yl)-2-[(2-oxopyrrolidin-1-yl)methyl]nicotinate] was tested. Which IC50 did it give?
Its IC50 is 0.037 µM.

`CCOC(=O)c1cc(C#N)c(N2CCC(C(=O)NS(=O)(=O)Cc3ccccc3)CC2)nc1CSCCO` [Example 28, Ethyl 6-{4-[(benzylsulfonyl)carbamoyl]piperidin-1-yl}-5-cyano-2-{[(2-hydroxyethyl)thio]methyl}nicotinate] was tested. Which IC50 did it give?
The IC50 was 0.037 µM.

Which IC50 does the source give for `CCOC(=O)c1cc(Cl)c(N2CCC(C(=O)NS(=O)(=O)Cc3ccccc3)CC2)nc1CN1CCCC1=O` [Example 85, Ethyl 6-{4-[(benzylsulfonyl)carbamoyl]piperidin-1-yl}-5-chloro-2-[(2-oxopyrrolidin-1-yl)methyl]nicotinate] here?
The IC50 was 0.041 µM.

`CCOC(=O)c1cc(C#N)c(N2CCC(C(=O)NS(=O)(=O)Cc3ccccc3)CC2)nc1SCC(=O)OC(C)C` [Example 111, Ethyl 6-{4-[(benzylsulfonyl)carbamoyl]piperidin-1-yl}-5-cyano-2-[(2-isopropoxy-2-oxoethyl)thio]nicotinate] was tested. Which IC50 did it give?
Its IC50 is 0.016 µM.

For `CCOC(=O)c1cc(C#N)c(N2CCC(C(=O)NS(=O)(=O)CC3CCCC3)CC2)nc1CN1CCCCC1=O` [Example 60, Ethyl 5-cyano-6-(4-{[(cyclopentylmethyl)sulfonyl]carbamoyl}piperidin-1-yl)-2-[(2-oxopiperidin-1-yl)methyl]nicotinate], which IC50 is on record?
The IC50 was 0.111 µM.

Which IC50 does the source give for `CCOC(=O)c1cc(C#N)c(N2CCC(C(=O)NS(=O)(=O)Nc3ccccc3)CC2)nc1CN1CCCCC1=O` [Example 64, Ethyl 6-{4-[(anilinosulfonyl)carbamoyl]piperidin-1-yl}-5-cyano-2-[(2-oxopiperidin-1-yl)methyl]nicotinate] here?
The IC50 was 0.14 µM.
